Test results reported in patent US20030220524A1, “Sulfur containing compounds” (priority 2000, published 2003).
Like-named read-outs stand apart in the source and are kept apart here.

How the values were obtained:
AML-3 leukemic cell line [1] = assay: Fixed propidium iodide staining, flow cytometry; assay type: cell-based, human; conditions: 48 h
Protocol: (§1) Adherent cell lines were plated at 35×10^4 cells/60 cm^2 dish the day before exposure to compound. Suspension cells were seeded at 25×10^4 cells/mL in a 6 well dish (Falcon) the day of exposure to compound. Mononucleated, T-cell depleted normal bone marrow cells were seeded at 50×10^4 cells/mL in a 6 well dish the day of exposure to compound. Cells were exposed to solvent control or approximate MTT50 and MTT30 concentrations of the compound. After 48 h of exposure to the compound, cells were harvested, fixed in 80% ethanol for 1 h on ice and labeled with 50 μg/mL propidium iodide (Sigma). Approximately 10^6 cells were analyzed using a XL-MCL flow cytometer (Coulter Corporation, Miami, Fla.) and a FACScalibar cytometer (Becton Dickinson, San Jose, Calif.). Profiles shown are a representative.
as §1, with “cm2” for “cm^2”, “concentrations.” for “concentrations of the compound.”, “representative. Cell viability counts and Pi staining were performed as previously described (Dimitroulakos, J, Nohynek, D, Backway, K L, Hedley, D W, Yeger, H, Freedman, M H, Minden, M D and Penn, L Z: Increased sensitivity of acute myeloid leukemias to lovastatin-induced apoptosis: A potential therapeutic approach. Blood 93: 1308-18, 1999).” for “representative.”

[2] = test system: Normal bone marrow (mononucleated, T-cell depleted); assay: MTT assay; assay type: cell-based; conditions: 48 h, read-out: MTT50
Protocol: (§2) All cell lines were assayed as asynchronously growing cells. Leukemic cell lines, OCI-AML-2, OCI-AML-3 (referred to hereafter as AML-2 and AML-3, respectively), NB-4, KK, B1, G2, and W1 were cultured in alpha-minimal essential medium (α-MEM) (Princess Margaret Hospital Media Services) supplemented with 10% fetal bovine serum (FBS) (Sigma, St. Louis, Mo.). Non-transformed, diploid fibroblast lines WI38 and IMR90, were cultured in α-MEM and MEM F-15, respectively supplemented with 10% FBS. Media for IMR90 cells was also supplemented with 1.5 g/L bicarbonate and 1 mM pyruvate. Breast tumour cell lines, MDA-231, SK-BR-3, MCF-7, ZR-751, and melanoma tumour cell lines, WM9, WM983, WM793, 1232, were grown in α-MEM supplemented with 10% fetal bovine serum. Prostate tumour cell lines, DU145 and PC-3, were grown in RPMI 1640 media supplemented with 10% FBS. All cell lines were cultured in the presence of penicillin/streptomycin. Mononucleated cells were isolated from normal bone marrow using Ficoll hypaque and then T-cell depleted. T-cell depletion was performed by incubating the mononucleated bone marrow cells in α-MEM at a concentration of 2×10^7 cells/mL with 10% absor FBS and 10% (v/v) sheep red blood cells for 4 to 16 h. Absor FBS was prepared beforehand by heating FBS at 56° C. for 1 h, incubating with sheep red blood cells at 0.5% (v/v) for 1 h and then filtering the FBS with a […]. The T-cell depleted, mononucleated cells were recovered using Ficoll hypaque and were maintained in α-MEM supplemented with 20% FBS and 10% 5637 ? nditioned media. 5637 conditioned media ? s previously harvested from confluent 5637 cells after a 3 day incubation. Normal bone marrow from bone marrow transplant donor was collected following informed consent according to institutional guidelines.
(§3) Approximately 20 mg of each compound was dissolved in 5 mL of ACS grade acetone (Sigma) using a 5 mL volumetric flask. Stock solutions of the compounds were stored in the dark at −20° C. Compounds were diluted prior to each experiment.
(§4) Adherent cells were seeded at 67×10^3 cells/mL in a 96 well plate (Falcon, Mississauga, Ontario) the day prior to exposure to compound. Suspension cells were seeded at 27×10^4 cells/mL in a 96 well plate the day of exposure to compound. Mononucleated, T-cell depleted normal bone marrow cells were seeded at 67×10^4 cells/mL in a 96 well plate the day of exposure to compound. Compounds and solvent control were added to cells and assayed in triplicate or sextuplet. Following 48 h of incubation at 37° C. with 5% CO2, 40 μL of a 5 mg/mL solution of 3-[4,5-dimethylthiazol-2-yl]-2,5-diphenyltetrazolium bromide (MTT) substrate (Sigma) in Dulbecco's phosphate-buffered saline (D-PBS) was added. After 4 h of incubation at 37° C. with 5% CO2, the resulting violet formazan precipitate was solubilized by the addition of 80 μL of a 0.01 M HCI, 10% sodium dodecyl sulfate (SDS; Sigma) solution overnight at 37° C. with 5% CO2. The plates were then analyzed using the BioRad Benchmark Microplate Reader (BioRad Laboratories, Hercules, Calif.) at 570 nm to determine the optical density of the samples. MTT data was analyzed using Prism 3.0 (GraphPad Software, Inc., San Diego, Calif.) by the Chou-Talalay method. MTT graphs shown are a representative experiment.
(§5) Adherent cells were seeded at 67×10^3 cells/mL in a 96 well plate (Falcon, Mississauga, Ontario) the day prior to exposure to compound. Suspension cells were seeded at 27×10^4 cells/mL in a 96 well plate the day of exposure to compound. Mononucleated, T-cell depleted normal bone marrow cells were seeded at 67×10^4 cells/mL in a 96 well plate the day of exposure to compound. Compounds and solvent control were added to cells and assayed in triplicate or sextuplet. […]

KK leukemic cell line = assay: MTT assay; assay type: cell-based, human; conditions: 48 h, read-out: MTT50
Protocol: as §2, §3, §4, §5

AML-3 leukemic cell line [3] = assay: MTT assay; assay type: cell-based, human
Protocol: as §2, §3, §4, §5

[4] = test system: WI38 non-transformed diploid fibroblasts; assay: MTT assay; assay type: cell-based, human; conditions: for IC50: read-out: MTT50; for Viability of non-transformed human WI38 fibroblasts following exposure: in words
Protocol: as §2, §3, §4, §5

[5] = Homo sapiens, AML3, 48 h, AML-3, read-out: MTT50
[6] = Homo sapiens, WI-38, 48 h, WI38 (normal), 48 h

| IC50 (KK leukemic cell line; Homo sapiens, KK) | IC50 (AML-3 leukemic cell line [3]; [5]) | IC50 (KK leukemic cell line; KK) | IC50 (AML-3 leukemic cell line [3]; AML-3, 48 h, read-out: MTT50) | SMILES | IC50 ([2]; T-cell, Normal bone marrow) | IC50 [4, 6] | IC50 ([2]; Normal bone marrow) | IC50 ([4]; WI38 (normal), 48 h) | Viability of non-transformed human WI38 fibroblasts following exposure [4] | other results |
| --- | --- | --- | --- | --- | --- | --- | --- | --- | --- | --- |
| 65.2 µM | 51.1 µM |  |  | CSSCC(=O)c1ccccc1 [Compound P, phenacyl methyl disulphide] | > 100 µM | > 100 µM |  |  |  | % pre-G1 (Fixed PI) (AML-3 leukemic cell line [1]; dose 50 uM): 7%; % pre-G1 (Fixed PI) (AML-3 leukemic cell line [1]; dose 150 uM): 66% |
|  |  | > 134 µM | > 134 µM | CSCSCS(C)(=O)=O [B] |  |  | > 134 µM | > 134 µM | not affected | % G2/M (Fixed PI) (AML-3 leukemic cell line [1]; dose 107 uM (20 ug/mL)): 13.4%; % pre-G1 (Fixed PI) (AML-3 leukemic cell line [1]; dose 107 uM (20 ug/mL)): 0.3% |
|  |  | 31.4 µM | 16.9 µM | CSSCS(=O)(=O)c1ccc(C)cc1 [Compound C, α-p-toluenesulfonyl dimethyl disulphide] |  |  | 20.9 µM | 89 µM | decreased | % G2/M (Fixed PI) (AML-3 leukemic cell line [1]; dose 20.2 uM (10 ug/mL)): 11.1%; % pre-G1 (Fixed PI) (AML-3 leukemic cell line [1]; dose 20.2 uM (10 ug/mL)): 10.7% |
|  |  | > 265 µM | > 265 µM | CS(C)(=O)=O [Compound A, dimethyl sulfone] |  |  | > 265 µM | > 265 µM | not affected | % pre-G1 (Fixed PI) (AML-3 leukemic cell line [1]; dose 212 uM (20 ug/mL)): 0.1% |
|  |  | 93.4 µM | 44 µM | CSSCCS(C)(=O)=O [F, 2,3,6-trithiaheptane 6,6,-dioxide] |  |  | 116 µM | > 100 µM | not affected | % G2/M (Fixed PI) (AML-3 leukemic cell line [1]; dose 45.8 uM (10 ug/mL)): 34.1%; % pre-G1 (Fixed PI) (AML-3 leukemic cell line [1]; dose 45.8 uM (10 ug/mL)): 5.1% |
| 10.5 µM | 15 µM |  | 8.53 µM | CSSc1ccc([N+](=O)[O-])cc1 [M, methyl p-nitrophenyl disulphide] | 22.6 µM | 13.8 µM |  | 17.4 µM |  | % pre-G1 (Fixed PI) (AML-3 leukemic cell line [1]; dose 20 uM): 34%; % pre-G1 (Fixed PI) (AML-3 leukemic cell line [1]; dose 40 uM): 56% |
|  |  | 110 µM | 93.4 µM | COC(=O)CSSC [H, methyl 3,4-dithiopentanoate] |  |  | 366 µM | > 164 µM | not affected | % pre-G1 (Fixed PI) (AML-3 leukemic cell line [1]; dose 65.7 uM (10 ug/mL)): 3.6% |
| 12.8 µM | 10.1 µM |  |  | c1ccc(SSc2ccccc2)cc1 [D, diphenyl disulphide] | 19.1 µM | 45.3 µM |  |  | decreased | % pre-G1 (Fixed PI) (AML-3 leukemic cell line [1]; dose 91.6 uM (20 ug/mL)): 24.1% |
| 31.5 µM | 31.5 µM |  |  | CSSCOC(C)=O [I, 2,3-dithiabutyl acetate] | 32.8 µM | 76.9 µM |  |  | decreased | % pre-G1 (Fixed PI) (AML-3 leukemic cell line [1]; dose 232.8 uM (5 ug/mL)): 23.6% |
| 114 µM | 114 µM |  |  | CS(=O)(=O)CSCS(C)(=O)=O [G, 2,4,6-trithiaheptane 2,2,6,6-tetraoxide] | 114 µM | 114 µM |  |  | not affected | % G2/M (Fixed PI) (AML-3 leukemic cell line [1]; dose 45.8 uM (10 ug/mL)): 13.5%; % pre-G1 (Fixed PI) (AML-3 leukemic cell line [1]; dose 45.8 uM (10 ug/mL)): 0.3% |
|  |  |  |  | CSCSSC [Compound N, 2,3,5-trithiahexane] |  |  |  |  |  | % G2 increase (Fixed PI) (AML-3 leukemic cell line [1]; dose 50 uM): +17%; % pre-G1 (Fixed PI) (AML-3 leukemic cell line [1]; dose 50 uM): 17%; % G2 increase (Fixed PI) (AML-3 leukemic cell line [1]; dose 150 uM): +14%; % pre-G1 (Fixed PI) (AML-3 leukemic cell line [1]; dose 150 uM): 35%; IC50 ([2]; T-cell): > 100 µM; IC50 (KK leukemic cell line; Homo sapiens): 65.2 µM; IC50 (AML-3 leukemic cell line [3]; Homo sapiens, AML3, 48 h, read-out: MTT50, AML-3): 51.1 µM; IC50 (AML-3 leukemic cell line [3]; read-out: MTT50, AML-3, 48 h): 73.4 µM; IC50 ([4]; Homo sapiens, WI-38, 48 h): > 100 µM |
| 17.5 µM | 15.4 µM |  |  | CS(=O)(=O)CSSc1ccccc1 [E, 5-phenyl-2,4,5-trithiapentane 2,2-dioxide] | 21.9 µM | 45.2 µM |  |  | decreased | % pre-G1 (Fixed PI) (AML-3 leukemic cell line [1]; dose 85.3 uM (20 ug/mL)): 24.5% |
| 23.7 µM | 22.5 µM |  |  | CCC(=O)OCSSc1ccccc1 [Compound Q, 1-phenyl-1,2-dithiapropyl propionate] | > 100 µM | > 100 µM |  |  |  | % G2 increase (Fixed PI) (AML-3 leukemic cell line [1]; dose 20 uM): −5%; % pre-G1 (Fixed PI) (AML-3 leukemic cell line [1]; dose 20 uM): 10%; % G2 increase (Fixed PI) (AML-3 leukemic cell line [1]; dose 40 uM): −9%; % pre-G1 (Fixed PI) (AML-3 leukemic cell line [1]; dose 40 uM): 42% |
